Data from PMC12372887, “Mechanism and cellular actions of the potent AMPK inhibitor BAY-3827” (Science Advances, 2025).

Experiments:
Assay in all cases: Kinase panel (140 human kinases)
Type in all cases: biochemical
[1] = target: ERK5 (Homo sapiens, UniProt Q13164)
Outline: (§1)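 Duplicate radiometric filter-binding measurements with [γ-^33P]ATP gave percent residual activity, mean and SD. Tested concentrations: 0.1 μM and, for BAY-3827, 1 μM. ATP set per kinase to 5, 20 or 50 μM, not above Km.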

[2] = target: ULK2 (Homo sapiens, UniProt Q8IYT8)
Outline: as §1

[3] = target: SIK3 (Homo sapiens, UniProt Q9Y2K2)
Outline: as §1

[4] = target: EPH-B3 (Homo sapiens, UniProt P54753)
Outline: as §1

[5] = target: Src (Homo sapiens, UniProt P12931)
Outline: as §1

[6] = target: MARK4 (Homo sapiens, UniProt Q96L34)
Sequence of MARK4 (Q96L34 whole entry): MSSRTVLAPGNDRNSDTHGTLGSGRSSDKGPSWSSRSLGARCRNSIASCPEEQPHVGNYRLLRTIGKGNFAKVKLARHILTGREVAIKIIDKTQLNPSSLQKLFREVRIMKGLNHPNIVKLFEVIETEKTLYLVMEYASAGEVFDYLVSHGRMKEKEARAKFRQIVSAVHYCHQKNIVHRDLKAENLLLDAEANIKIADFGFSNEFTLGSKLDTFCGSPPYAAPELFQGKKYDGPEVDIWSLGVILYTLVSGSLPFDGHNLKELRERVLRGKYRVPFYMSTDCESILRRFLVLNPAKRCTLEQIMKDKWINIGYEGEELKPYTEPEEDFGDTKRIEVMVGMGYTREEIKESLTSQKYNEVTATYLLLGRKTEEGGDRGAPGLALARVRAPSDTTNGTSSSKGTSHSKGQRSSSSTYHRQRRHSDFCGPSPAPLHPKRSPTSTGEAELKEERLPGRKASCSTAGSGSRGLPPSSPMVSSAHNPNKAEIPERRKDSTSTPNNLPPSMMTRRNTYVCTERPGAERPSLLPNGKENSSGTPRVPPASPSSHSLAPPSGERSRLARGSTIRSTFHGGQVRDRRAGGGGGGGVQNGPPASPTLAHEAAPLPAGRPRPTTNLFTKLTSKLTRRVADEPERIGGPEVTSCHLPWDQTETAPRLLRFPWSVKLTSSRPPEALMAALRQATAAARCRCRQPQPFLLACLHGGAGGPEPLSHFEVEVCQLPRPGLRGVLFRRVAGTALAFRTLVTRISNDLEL
Outline: as §1

[7] = target: DYRK2 (Homo sapiens, UniProt Q92630)
Outline: as §1

[8] = target: T1, NUAK1 (Homo sapiens, UniProt O60285)
T1 sequence (O60285 1-661): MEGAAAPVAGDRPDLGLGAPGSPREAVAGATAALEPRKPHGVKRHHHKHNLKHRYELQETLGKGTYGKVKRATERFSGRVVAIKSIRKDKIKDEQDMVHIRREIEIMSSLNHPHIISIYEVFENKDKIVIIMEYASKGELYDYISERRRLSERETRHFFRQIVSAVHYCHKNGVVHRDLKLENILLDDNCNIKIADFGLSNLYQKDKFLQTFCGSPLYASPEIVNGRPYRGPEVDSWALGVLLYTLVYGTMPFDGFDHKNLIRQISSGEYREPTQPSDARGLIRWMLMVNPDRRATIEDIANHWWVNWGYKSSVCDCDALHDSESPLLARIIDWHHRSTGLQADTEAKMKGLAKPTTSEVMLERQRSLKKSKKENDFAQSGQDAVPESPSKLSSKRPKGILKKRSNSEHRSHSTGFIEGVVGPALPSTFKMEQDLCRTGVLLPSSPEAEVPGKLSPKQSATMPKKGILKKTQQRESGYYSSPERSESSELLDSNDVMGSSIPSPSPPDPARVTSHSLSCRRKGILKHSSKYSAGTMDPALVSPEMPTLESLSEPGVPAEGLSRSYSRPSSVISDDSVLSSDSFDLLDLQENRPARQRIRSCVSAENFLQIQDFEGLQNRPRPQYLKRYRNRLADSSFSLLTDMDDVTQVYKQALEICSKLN
Outline: as §1

[9] = target: p38b MAPK (Homo sapiens, UniProt Q15759)
Sequence of p38b MAPK (Q15759 whole entry): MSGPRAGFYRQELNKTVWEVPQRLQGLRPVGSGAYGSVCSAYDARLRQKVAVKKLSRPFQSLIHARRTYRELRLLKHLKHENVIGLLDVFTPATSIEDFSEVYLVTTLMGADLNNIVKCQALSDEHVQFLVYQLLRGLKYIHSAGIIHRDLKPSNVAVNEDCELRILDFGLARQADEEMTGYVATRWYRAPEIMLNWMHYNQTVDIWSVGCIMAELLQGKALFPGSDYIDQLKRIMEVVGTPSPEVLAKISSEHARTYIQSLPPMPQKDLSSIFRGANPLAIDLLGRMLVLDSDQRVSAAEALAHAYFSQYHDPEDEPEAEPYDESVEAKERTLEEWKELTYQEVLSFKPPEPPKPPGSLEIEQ
Outline: as §1

[10] = target: Aurora B (Homo sapiens, UniProt Q96GD4)
Sequence of Aurora B (Q96GD4 whole entry): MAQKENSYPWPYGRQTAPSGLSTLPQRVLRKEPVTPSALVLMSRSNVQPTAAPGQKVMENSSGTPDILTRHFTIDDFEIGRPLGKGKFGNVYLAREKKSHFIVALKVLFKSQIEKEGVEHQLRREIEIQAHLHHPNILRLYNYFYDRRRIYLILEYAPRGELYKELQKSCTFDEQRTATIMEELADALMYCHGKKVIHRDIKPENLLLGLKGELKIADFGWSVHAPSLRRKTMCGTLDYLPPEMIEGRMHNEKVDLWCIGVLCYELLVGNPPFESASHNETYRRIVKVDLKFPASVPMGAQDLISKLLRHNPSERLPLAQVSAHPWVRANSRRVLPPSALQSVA
Outline: as §1

[11] = target: DDR2 (Homo sapiens, UniProt Q16832)
Sequence of DDR2 (Q16832 22-855): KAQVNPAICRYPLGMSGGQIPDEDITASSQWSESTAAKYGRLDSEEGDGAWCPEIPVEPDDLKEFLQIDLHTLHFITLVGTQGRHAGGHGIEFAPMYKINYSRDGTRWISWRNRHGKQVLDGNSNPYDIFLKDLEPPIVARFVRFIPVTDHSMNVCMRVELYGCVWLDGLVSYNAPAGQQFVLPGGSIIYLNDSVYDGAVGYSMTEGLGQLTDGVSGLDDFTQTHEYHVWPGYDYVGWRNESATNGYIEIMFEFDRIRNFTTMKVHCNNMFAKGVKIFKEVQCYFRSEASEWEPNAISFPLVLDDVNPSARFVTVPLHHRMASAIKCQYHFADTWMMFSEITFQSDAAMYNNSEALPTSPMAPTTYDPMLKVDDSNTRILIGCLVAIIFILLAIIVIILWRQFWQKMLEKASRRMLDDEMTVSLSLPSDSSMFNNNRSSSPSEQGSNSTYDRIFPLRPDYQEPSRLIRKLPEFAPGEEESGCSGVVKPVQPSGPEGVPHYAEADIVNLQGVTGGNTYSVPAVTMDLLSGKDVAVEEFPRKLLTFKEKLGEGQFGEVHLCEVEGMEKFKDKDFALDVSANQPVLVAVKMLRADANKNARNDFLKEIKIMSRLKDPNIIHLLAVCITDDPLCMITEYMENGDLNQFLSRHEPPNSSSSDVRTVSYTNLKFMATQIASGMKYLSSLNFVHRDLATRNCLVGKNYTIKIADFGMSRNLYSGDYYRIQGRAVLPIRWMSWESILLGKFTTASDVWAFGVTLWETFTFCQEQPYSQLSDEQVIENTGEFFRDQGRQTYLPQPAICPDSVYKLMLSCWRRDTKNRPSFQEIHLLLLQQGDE
Outline: as §1

[12] = target: NEK6 (Homo sapiens, UniProt Q9HC98)
Outline: as §1

[13] = target: AMPK
Outline: as §1

[14] = target: IRR (Homo sapiens, UniProt P14616)
Sequence of IRR (P14616 27-1297): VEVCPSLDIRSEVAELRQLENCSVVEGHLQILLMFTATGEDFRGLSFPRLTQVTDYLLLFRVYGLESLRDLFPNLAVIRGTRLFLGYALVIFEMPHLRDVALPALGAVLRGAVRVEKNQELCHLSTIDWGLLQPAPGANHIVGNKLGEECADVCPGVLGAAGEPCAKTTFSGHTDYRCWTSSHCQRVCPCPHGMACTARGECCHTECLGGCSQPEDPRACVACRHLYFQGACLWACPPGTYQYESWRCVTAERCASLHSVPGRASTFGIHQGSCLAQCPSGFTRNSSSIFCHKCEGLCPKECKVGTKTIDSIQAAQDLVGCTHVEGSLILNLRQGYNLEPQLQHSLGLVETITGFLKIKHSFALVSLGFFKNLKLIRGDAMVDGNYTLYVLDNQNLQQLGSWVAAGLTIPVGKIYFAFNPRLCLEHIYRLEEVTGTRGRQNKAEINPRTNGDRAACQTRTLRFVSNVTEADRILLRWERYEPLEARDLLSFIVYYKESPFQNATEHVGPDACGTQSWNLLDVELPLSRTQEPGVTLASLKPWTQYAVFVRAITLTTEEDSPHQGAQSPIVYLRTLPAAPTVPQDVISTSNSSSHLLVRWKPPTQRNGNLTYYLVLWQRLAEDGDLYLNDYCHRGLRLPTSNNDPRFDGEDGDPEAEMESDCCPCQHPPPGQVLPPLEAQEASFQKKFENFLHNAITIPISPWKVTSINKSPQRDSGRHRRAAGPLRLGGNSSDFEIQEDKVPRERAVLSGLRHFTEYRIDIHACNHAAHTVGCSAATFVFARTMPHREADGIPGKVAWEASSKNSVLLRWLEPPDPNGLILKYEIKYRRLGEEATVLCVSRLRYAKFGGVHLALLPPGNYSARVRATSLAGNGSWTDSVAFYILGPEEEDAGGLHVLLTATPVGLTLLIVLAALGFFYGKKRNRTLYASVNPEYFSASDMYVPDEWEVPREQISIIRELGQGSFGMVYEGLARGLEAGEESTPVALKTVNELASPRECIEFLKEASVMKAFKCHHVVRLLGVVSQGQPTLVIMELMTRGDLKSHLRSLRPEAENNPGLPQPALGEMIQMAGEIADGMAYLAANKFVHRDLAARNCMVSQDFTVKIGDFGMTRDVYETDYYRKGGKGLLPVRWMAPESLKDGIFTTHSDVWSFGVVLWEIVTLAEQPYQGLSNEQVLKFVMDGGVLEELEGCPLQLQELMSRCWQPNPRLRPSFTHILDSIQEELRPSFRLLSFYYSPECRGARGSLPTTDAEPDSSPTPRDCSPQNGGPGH
Outline: as §1

[15] = target: MLK3 (Homo sapiens, UniProt Q16584)
Outline: as §1

[16] = target: NEK2a (Homo sapiens, UniProt P51955)
Outline: as §1

[17] = target: TSSK1 (Homo sapiens, UniProt Q9BXA7)
Sequence of TSSK1 (Q9BXA7 whole entry): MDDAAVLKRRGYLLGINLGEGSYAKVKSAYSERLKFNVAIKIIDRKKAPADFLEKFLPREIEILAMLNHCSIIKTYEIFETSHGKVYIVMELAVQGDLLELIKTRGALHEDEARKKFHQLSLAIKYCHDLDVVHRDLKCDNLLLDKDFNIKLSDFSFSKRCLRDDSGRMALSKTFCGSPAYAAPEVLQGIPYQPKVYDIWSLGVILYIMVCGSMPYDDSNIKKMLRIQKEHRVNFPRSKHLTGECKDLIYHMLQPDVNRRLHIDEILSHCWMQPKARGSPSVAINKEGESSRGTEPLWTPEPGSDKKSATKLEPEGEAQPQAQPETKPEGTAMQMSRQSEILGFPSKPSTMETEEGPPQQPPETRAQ
Outline: as §1

[18] = target: MKK6 (Homo sapiens, UniProt P52564)
Sequence of MKK6 (P52564 whole entry): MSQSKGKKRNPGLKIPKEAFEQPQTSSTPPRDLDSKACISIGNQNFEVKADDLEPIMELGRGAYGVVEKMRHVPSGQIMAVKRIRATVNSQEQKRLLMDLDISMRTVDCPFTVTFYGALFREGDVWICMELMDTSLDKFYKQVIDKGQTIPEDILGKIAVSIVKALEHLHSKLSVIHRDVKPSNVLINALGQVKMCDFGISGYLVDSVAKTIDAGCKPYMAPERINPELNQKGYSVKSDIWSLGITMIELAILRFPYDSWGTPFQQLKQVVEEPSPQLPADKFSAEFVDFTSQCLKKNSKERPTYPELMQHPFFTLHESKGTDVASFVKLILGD
Outline: as §1

[19] = target: T2, TAK1 (Homo sapiens, UniProt O43318)
T2 sequence (O43318 1-303 limits assumed): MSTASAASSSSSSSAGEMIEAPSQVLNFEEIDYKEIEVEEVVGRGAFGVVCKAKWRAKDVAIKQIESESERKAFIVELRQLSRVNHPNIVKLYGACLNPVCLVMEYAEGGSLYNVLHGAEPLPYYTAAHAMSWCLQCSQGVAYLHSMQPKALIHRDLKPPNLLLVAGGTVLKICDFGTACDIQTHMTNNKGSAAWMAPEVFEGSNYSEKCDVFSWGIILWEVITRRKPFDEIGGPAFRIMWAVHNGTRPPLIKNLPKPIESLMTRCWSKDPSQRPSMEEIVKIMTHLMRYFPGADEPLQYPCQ
Outline: as §1

[20] = target: BRSK1 (Homo sapiens, UniProt Q8TDC3)
Sequence of BRSK1 (Q8TDC3 whole entry): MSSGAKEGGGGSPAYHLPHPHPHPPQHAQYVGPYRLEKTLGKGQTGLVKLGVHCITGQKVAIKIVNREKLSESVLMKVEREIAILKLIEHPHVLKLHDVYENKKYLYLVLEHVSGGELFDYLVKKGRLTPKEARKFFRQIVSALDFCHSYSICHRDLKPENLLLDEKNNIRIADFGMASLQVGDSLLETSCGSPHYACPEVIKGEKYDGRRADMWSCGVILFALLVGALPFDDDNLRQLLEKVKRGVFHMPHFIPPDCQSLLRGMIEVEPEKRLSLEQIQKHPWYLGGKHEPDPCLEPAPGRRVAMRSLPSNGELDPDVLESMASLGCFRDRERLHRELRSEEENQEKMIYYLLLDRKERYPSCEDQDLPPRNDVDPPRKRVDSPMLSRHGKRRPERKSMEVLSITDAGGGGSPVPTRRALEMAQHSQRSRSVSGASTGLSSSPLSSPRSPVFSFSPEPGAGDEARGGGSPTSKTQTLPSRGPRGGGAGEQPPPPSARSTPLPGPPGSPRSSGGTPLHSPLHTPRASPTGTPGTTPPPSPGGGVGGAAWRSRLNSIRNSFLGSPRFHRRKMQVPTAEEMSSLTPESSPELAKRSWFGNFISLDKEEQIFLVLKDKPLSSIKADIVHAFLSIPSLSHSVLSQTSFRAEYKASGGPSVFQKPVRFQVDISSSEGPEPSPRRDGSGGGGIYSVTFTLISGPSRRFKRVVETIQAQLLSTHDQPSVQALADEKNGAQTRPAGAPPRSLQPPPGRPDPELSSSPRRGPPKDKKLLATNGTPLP
Outline: as §1

[21] = 1 μM, cross-referenced with screen data of ref 37, read-out: activity remaining after treatment

Compound	remaining activity at 0.1 µM [1]	remaining activity at 0.1 µM [2]	remaining activity at 0.1 µM [3]	remaining activity at 0.1 µM [4]	remaining activity at 0.1 µM [5]	remaining activity at 0.1 µM [6]	remaining activity at 0.1 µM [7]	remaining activity at 0.1 µM [8]	remaining activity at 0.1 µM [9]	remaining activity at 0.1 µM [10]	remaining activity at 0.1 µM [11]	remaining activity at 0.1 µM [12]	inhibition of kinase ([13]; 0.1 μM)	remaining activity at 0.1 µM [14]	remaining activity at 0.1 µM [15]	remaining activity at 0.1 µM [16]	remaining activity at 0.1 µM [17]	remaining activity at 0.1 µM [18]	remaining activity at 0.1 µM [19]	remaining activity at 0.1 µM [20]	also measured
CC1=C(C#N)C(c2ccc3c(c2)c(NC(=O)c2ccccc2C)nn3C)C(C#N)=C(C)N1 [BAY-974, N-[5-(3,5-dicyano-2,6-dimethyl-1,4-dihydropyridin-4-yl)-1-methylindazol-3-yl]-2-methylbenzamide]	70%	60%	81%	119%	92%	96%	79%	60%	81%	62%	89%	85%	almost no effect	88%	90%	121%	55%	94%	93%	96%	Kinase activity remaining (%) ([13]; 0.1 μM): 98%
CCc1ccccc1C(=O)Nc1n[nH]c2c(C)c(F)c(C3C(C#N)=C(C)N(C)C(C)=C3C#N)cc12 [BAY-3827, N-[5-(3,5-dicyano-1,2,6-trimethyl-4H-pyridin-4-yl)-6-fluoro-7-methyl-1H-indazol-3-yl]-2-ethylbenzamide]	80%	96%	99%	84%	90%	98%	89%	68%	55%	≤ 50%	80%	102%	> 90%	89%	85%	122%	88%	101%	118%	77%	remaining activity at 1 µM [8, 21]: ≤ 50%; inhibition at 0.1 µM [10]: ~60%; activity remaining after treatment ([13]; 1 μM, cross-referenced with screen data of ref 37): ≤ 50%; remaining activity at 1 µM [19, 21]: ≥ 99%
